Holding throughout (type): in vivo
The test system of data set [1] is bread wheat (Triticum aestivum L.) and durum wheat (Triticum durum Desf.). Briefly: Further wheat field trials under controlled and natural drought stress (Example 1e). The settings on record: for average grain yield increase compared to untreated check / mean TGW increase versus untreated check: multitrial analysis; for average grain yield increase compared to untreated check: all 26 disease-free modalities, 30 or 75 g ha^-1; for mean TGW increase versus untreated check: controlled and natural drought stress, 20 modalities; for grain yield increase compared to untreated check: only trials under controlled drought stress conditions. An excerpt: Wheat field trials were designed as randomized complete blocks with six replicates. Sowing, fertilization and general crop maintenance were done in accordance to locally accepted best practice. Crop protection maintenance products were applied preventatively only if required across all trial area (check and experimental plots and boundary areas) including locally registered seed treatment products, herbicides and insecticides. In case of potential disease attack, DMI and/or contact fungicides were applied preventatively. Application of fungicides from Qo inhibitors (strobilurines) and SDHI groups were not allowed to avoid possible interaction with compound I experimental treatments. Any products with plant growth regulator effects were excluded as well. Pesticides were applied not less than three to four days before or after experimental applications of compound I.
Following assessments were taken: general phytotoxicity at 7 and 14 days after application, general pest damage ratings before harvest, grain yield adjusted to 10% standard moisture (calculation based on fresh grain weight and grain moisture at harvest), thousand grain weight (TGW) adjusted to 10% standard moisture.
Entire plots or only central treated areas were harvested manually using cutters with stationary threshers (trials located in Argentina, Egypt and India) or with small-plot combine-harvesters (trials located in France, Italy and USA).
Single trial statistical analysis of variance (ANOVA) was done with Agstat 1.6 / ACSAP 4.29. Multi-trial analysis was based on paired t-test with comparison of compound I experimental treatments versus untreated checks and was done with TIBCO® Spotfire® 7.0.1.
To minimize risk of environmental impacts from rain on drought stress period and level, all proposed locations were validated through internal Environment and Crop Modelling process. This modelling allowed to calculate the potential drought stress intensity through estimation of climatic cumulative water deficit (sum of all daily water deficit during reproductive stage of wheat development). Daily water deficit was calculated as difference between daily precipitation and daily evapotranspiration by wheat plants. Thirty-eight candidate locations were proposed as suitable for drought stress trials. We performed field trials at fifteen locations from which we present results from the eleven disease-free trials that originated from seven locations: Egypt (Kaha), Italy (Foggia), India (Dongargaon, Mandleshwar and Sanwer) and USA (Woodland, CA; Jerome, ID).
Each field trial had two adjacent blocks: well-watered (WW) block with untreated check plots used for stress level estimation and grain yield reference and water-stressed (WS) block with experimental treatments including untreated check plots. Plot size varied between trials from 8.45 m^2 (Woodland, US) up to 30 m^2 (Kaha, EG) and harvested plot size was from 8.45 m^2 (Woodland, US) up to 20.7 m^2 (India). Seven locally adapted drought sensitive commercial varieties of spring and winter bread wheat (Triticum aestivum L.) and durum wheat (Triticum durum Desf.) were tested: var. Massimo Meridio (Foggia, IT), var. Saha 94 and Sods 12 (Kaha, EG), var. GW322 and GW366 (India), var. Alturas (Jerome, US) and var. Summit 515 (Woodland, US).
To manage drought stress, three types of water irrigation systems were used: precise drip irrigation (Kaha, EG; Foggia, IT; Woodland, US), solid-set sprinkler irrigation (Jerome, US) and flood irrigation (all sites in India). Plants in WW blocks were well irrigated from sowing till harvest to compensate 100% of evapotranspiration demand, targeting the optimum yield achievable in the trial area. Plants in WS blocks were irrigated from planting till the beginning of pre-stress period exactly at the same level of water supply as in WW conditions. […]

Data set [2] relates to spring wheat (Triticum aestivum L.) of the variety Taifun. In words: Whole plant transpiration analysis. The procedure:
For whole plant transpiration analysis, spring wheat (Triticum aestivum L.) of the variety Taifun was grown under pest free conditions in 1.2 L growth columns filled with a field soil (sandy loam). Plants were daily watered to a target soil water content of 0.25 g H2O g^-1 dry soil. Plant growth and transpiration analysis was in growth chambers at 25/18 °C (day/night), 60 % relative humidity and a light intensity of 600 µmol m^-2 s^-1 at 14 hours of photoperiod. Transpiration was measured by monitoring the weight of the plant-pot-system with an automated weighing system. Application of compound I formulated as EC 100 at 75 g ha^-1 was done with a track sprayer at 200 L ha^-1 when plants were at BBCH 23. Transpiration was monitored at optimal watering for seven days after application, afterwards watering was stopped. The experimental layout was a randomized complete block design with nine replications per treatment; one experimental unit was two plants per pot. The transpiration before treatment was used as covariant for statistical analysis (ANOVA, Agstat 1.6 / ACSAP 4.29).

The next data set deals with Spring wheat. Briefly: Crop enhancement effect on wheat under drought conditions in the field (Example 1d). The settings on record: non-irrigated; for Grain Yield / TGW: adjusted to 10% standard moisture; for No. of grains per ear: average of 20 ears per plot. The procedure: Spring wheat (plot size 30m^2) was treated with a single application at BBCH GS 41 (early boot stage) or 49 (first awns visible) with the compound of formula I at a rate of 75.0 g a.i/ha. […] This water supply condition was maintained during the reproductive stages of plant growth (BBCH 55-89). The trial was carried out with six replicates. At the end of the trial, a 20m^2 plot was harvested from each of five replicates. […]

Where [3] appears, read: 75.0 g a.i/ha applied at BBCH 41.
[4] abbreviates: 75.0 g a.i/ha applied at BBCH 49.

With `Cn1cc(C(=O)Nc2cccc3c2C2CCC3C2=C(Cl)Cl)c(C(F)F)n1` (centres unmarked) [Compound I, benzovindiflupyr], the general phytotoxicity result in data set [1] (EC 100 at 30 or 75 g ha^-1, BBCH 39 to 55, all trials, 7 and 14 days after application) was “did not cause any phytotoxic effects”. The “average grain yield increase with 75 g ha^-1 compared to the rate of 30 g ha^-1” value in data set [1] (controlled drought stress conditions) is recorded as “+0.23 dt ha^-1”. Further, in data set [1], the “average grain yield increase compared to untreated check” value is reported as “+5.2%”, the “mean TGW increase versus untreated check” value is given as “+1.9%” and the “grain yield increase compared to untreated check” value was “+6.0%”. Also, in data set [1] (95% CI +1.45 to +3.21 dt ha^-1), the “average grain yield increase compared to untreated check” value is “+2.33 dt ha^-1”. Also, the “mean TGW increase versus untreated check” value in data set [1] (95 % CI [+0.23, +1.13] g 1000 seeds^-1) was found to be 0.68 g 1000 seeds^-1. The “grain yield increase compared to untreated check” value in data set [1] (95% CI [+1.69, +4.03] dt ha^-1) is recorded as “+2.86 dt ha^-1”. In addition, in data set [1] (single trial ANOVA, p ≤ 0.05), the “TGW compared to untreated check” value was “did not detect any significant effect” and the “grain yield adjusted to 10% standard moisture compared to untreated check” value is reported as “did not detect any significant effect”. Besides, the “impact on biomass accumulation” value in data set [2] (EC 100 at 75 g ha^-1) is listed as “no negative impact”. The “transpiration decrease compared to untreated control plants” value in data set [2] (EC 100 at 75 g ha^-1, BBCH 23, within one day, constant soil water content) is given as “about 8%”. The compound also gave a shoot dry weight in data set [2] (EC 100 at 75 g ha^-1, end of the experiment, control plants same value) of 6.3 ± 0.4 g plant^-1. Also, the “transpiration rate during soil drying compared to untreated control plants” value in data set [2] (EC 100 at 75 g ha^-1, irrigation withheld eight days after application) is given as “transiently higher transpiration rate”. In addition, the “duration of transpiration decrease” value in data set [2] (EC 100 at 75 g ha^-1, optimal watering) is “consistent for at least seven days”. In the data set on Spring wheat (setting [3]), the Hectolitre weight came out at 85.68 kg/Hl, the “Grain Yield” value is reported as 48.00 dT/Ha, the TGW came to 41.56 g and the “No. of grains per ear” value was found to be 50.80. In the data set on Spring wheat (setting [4]), the Hectolitre weight was found to be 84.96 kg/Hl, the “Grain Yield” value amounted to 42.30 dT/Ha, the TGW worked out at 41.46 g and the “No. of grains per ear” value turned out to be 46.70.
